Data taken from patent US20220378761A1, “PAPD5 Inhibition As A Treatment For Dyskeratosis Congenita, Aplastic Anemia And Myelodysplastic Syndrome Caused By Reduced Telomerase RNA Levels” (The Regents of The University of Colorado, A Body Corporate, priority 2019, published 2022).

Columns and labels:
TERC = TERC localization to cajal bodies by fluorescent microscopy (coilin IF, TERC FISH) in HeLa cells; assay type: cell-based, Homo sapiens; conditions: RG7834 for 2 days
Protocol: Th present inventors have previously shown that in DKC1- or PARN-depleted cells, TERC accumulates in cytoplasmic puncta called “cyTER bodies,” instead of its normal localization to cajal bodies in the nucleus. To investigate whether RG7834 treatment rescued TERC localization to cajal bodies in the nucleus, DKC1- or PARN-depleted cells were treated with RG7834 for 2 days. […] Upon treatment with RG7834, —38% of cells had TERC localized to cajal bodies, which is consistent with the 1.5× increase in TERC levels in these cells. RG7834 treatment also rescued TERC localization to cajal bodies in PARN-depleted cells. In PARN knockdown cells, ˜34% of cells had TERC in cajal bodies, with TERC also mostly being localized to cyTER bodies in these cells. However, upon RG7834 treatment, ˜85% of cells had TERC localized to cajal bodies.
Fluorescent microscopy for Cajal bodies and TERC: Cells were seeded directly on glass coverslips (ethanol washed) in 6-well plates and transfected and drug treated as previously described. Coverslips were washed once with 1× DPBS and fixed with 4% formaldehyde in 1× DPBS at room temperature for 10 minutes. Cells were permeabilized in 0.2% Triton 1× DPBS for 10 minutes, and then incubated with rabbit anti-Coilin (Santa Cruz) for 1 hour at room temperature. […]

HeLa cells = assay: Toxicity in RG7834-treated HeLa cells; assay type: cell-based, Homo sapiens; conditions: duration of the experiments
DKC1_A353V hESCs = assay: Toxicity in DKC1_A353V hESCs (NANOG qRT-PCR, EdU incorporation); assay type: cell-based, Homo sapiens; conditions: concentrations indicated, entire duration (60 days)
Protocol: FIG. 5. No detectable RG7834 toxicity in hESCs. (A) Representative immunoblot analysis of γH2AX in DKC1_A353V hESCs treated with different concentrations of RG7834 (indicated in the figure). Positive control: Etoposide 50 nM. Actin is shown as a loading control. (B) Quantification of NANOG by qRT-PCR in DKC1_A353V hESCs treated with DMSO or different concentrations of RG7834 (as indicated) for 60 days. (C) Flow cytometry analysis of EdU incorporation with DNA content (DAPI) in DKC1_A353V hESCs, treated with DMSO or 5 μM of RG7834 for 60 days. Quantification of active proliferating cells (EdU positive) is indicated. (D) MA plot for the analysis of RNA-sequencing experiments between DMSO or RG7834 treated DKC1_A353V hESCs. No significant differences in gene expression were found.
The present inventors investigated if treatment with RG7834 was sufficient to reduce DNA damage signaling arising from eroded telomeres, a hallmark of DC.

cell culture models = conditions: cited from earlier work

SMILES: COCCCOc1cc2c(cc1OC)-c1cc(=O)c(C(=O)O)cn1[C@H](C(C)C)C2 [RG7834]
- cells with TERC localized to cajal bodies (TERC; DKC1 knockdown): ~38%
- cells with TERC localized to cajal bodies (TERC; PARN knockdown): ~85%
- toxicity in RG7834-treated cells (HeLa cells): No cellular toxicity was observed
- toxicity associated with RG7834 treatment (DKC1_A353V hESCs): no toxicity associated with RG7834 treatment was detected
- toxicity in cell culture models (cell culture models): low toxicity
